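1) Cells in 96-well plates. 2) Compound, 48 h, 5 concentrations. 3) Linear interpolation between surrounding doses. 4) Unreached endpoint = highest concentration. GI50 marks 50% less growth. At the TGI there is no net growth.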
Assays:
Assay in all cases: NCI tumour cell line growth inhibition, 48 h
[1] = test system: HL-60(TB) leukemia
[2] = test system: HOP-62 NSCLC
[3] = test system: K-562 leukemia
[4] = test system: OVCAR-3 ovarian
[5] = test system: RPMI-8226 leukemia
[6] = test system: RXF 393 renal
[7] = test system: SF-295 CNS
[8] = test system: SK-OV-3 ovarian
[9] = test system: SNB-19 CNS
[10] = test system: UO-31 renal

With O=C1C[C@H](c2ccccc2)C2(C(=O)c3ccccc3C2=O)[C@@H](c2ccccc2)C1 the TGI [1] was > 100000 nM, the TGI [2] was > 100000 nM and the TGI [3] was > 100000 nM. For the same compound, the TGI [4] was > 100000 nM, the TGI [5] was > 100000 nM and the TGI [6] was > 100000 nM. For the same compound, the TGI [7] was > 100000 nM, the TGI [8] was > 100000 nM and the TGI [9] was > 100000 nM. The TGI [10] was > 100000 nM.
Oc1c(I)cc(I)cc1CNCCCN(Cc1ccccn1)Cc1ccccn1 showed a GI50 [1] of 1080 nM, a TGI [1] of 2510 nM and a GI50 [2] of 1020 nM. The TGI [2] was 2350 nM, the GI50 [3] was 1710 nM and the TGI [3] was 50000 nM. It also gave a GI50 [4] of 948 nM, a TGI [4] of 1850 nM and a GI50 [5] of 1340 nM. The TGI [5] was 4470 nM, the GI50 [6] was 866 nM and the TGI [6] was 1660 nM. The GI50 [7] was 885 nM, the TGI [7] was 1740 nM and the GI50 [8] was 1010 nM. It also gave a TGI [8] of 2180 nM, a GI50 [9] of 1490 nM and a TGI [9] of 5500 nM. The GI50 [10] was 786 nM and the TGI [10] was 1460 nM.
In the case of COc1ccc(C2C(C(=O)O)=C(COC(C)=O)Oc3cc4c(cc32)OCO4)cc1 (stereo not given), the TGI [1] is reported as > 100000 nM, the TGI [2] is reported as > 100000 nM and the TGI [3] is reported as > 100000 nM. The TGI [4] was > 100000 nM, the TGI [5] was > 100000 nM and the TGI [6] was > 100000 nM. The TGI [7] was > 100000 nM, the TGI [8] was > 100000 nM and the TGI [9] was > 100000 nM. The TGI [10] was > 100000 nM.
